# Test results taken from patent US20040265846A1, “Adrenergic receptors” (DUKE UNIVERSITY, priority 2002, published 2004).
# Numbering of substitutions follows the chain as printed.
# Experiments:
# [1] = target: T1, human α1aAR SNP V311I (Homo sapiens, UniProt P35348, V311I); experiment: Competition binding vs [125I]HEAT, SNP V311I; conditions: high expressing clone
# T1 construct: expressed in transfected cells
# T1 sequence (P35348 1-466 V311I): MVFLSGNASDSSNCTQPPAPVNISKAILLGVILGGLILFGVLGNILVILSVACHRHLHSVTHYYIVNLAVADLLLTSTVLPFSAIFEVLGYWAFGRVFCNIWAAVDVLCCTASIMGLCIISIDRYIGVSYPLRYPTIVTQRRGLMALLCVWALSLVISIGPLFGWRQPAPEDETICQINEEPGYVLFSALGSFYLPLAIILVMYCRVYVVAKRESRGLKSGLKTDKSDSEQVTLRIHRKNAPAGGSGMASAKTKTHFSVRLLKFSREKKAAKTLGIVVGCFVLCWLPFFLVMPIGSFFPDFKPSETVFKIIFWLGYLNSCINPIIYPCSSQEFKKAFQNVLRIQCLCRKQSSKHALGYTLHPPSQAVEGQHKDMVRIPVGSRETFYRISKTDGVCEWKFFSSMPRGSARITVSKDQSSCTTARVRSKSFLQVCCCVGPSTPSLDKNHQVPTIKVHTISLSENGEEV
# [2] = target: T1, human α1aAR SNP V311I; experiment: NE-stimulated inositol phosphate (IP) production, SNP V311I; assay type: cell-based
# [3] = target: T2, human α1aAR SNP G247R (Homo sapiens, UniProt P35348, G247R); experiment: NE-stimulated inositol phosphate (IP) production, SNP G247R; assay type: cell-based; conditions: low-expression stable clones
# T2 construct: expressed in transfected cells
# T2 sequence (P35348 1-466 G247R): T1 sequence (P35348 1-466 V311I) with G247R, I311V
# [4] = target: T3, human α1aAR SNP I200S (Homo sapiens, UniProt P35348, I200S); experiment: Competition binding vs [125I]HEAT, SNP I200S; conditions: high expressing clone
# T3 construct: expressed in transfected cells; host or cells: rat-1 fibroblasts (membranes)
# T3 sequence (P35348 1-466 I200S): T1 sequence (P35348 1-466 V311I) with I200S, I311V
compound,measurement,setting,value
"NC[C@H](O)c1ccc(O)c(O)c1 [NE, (−)-norepinephrine]",Ki increase vs WT (decrease in receptor affinity),[1],~3 fold
same,decrease in potency of NE-stimulated IP formation compared with WT,[2]; high-expression stable clone,2.4 fold
same,EC50 for NE vs WT,[2]; low-expression stable clone,significantly increased EC50
same,EC50 for NE vs WT,[2]; transiently transfected rat-1 fibroblasts,significantly increased EC50
same,maximum IP production (maximum activity) vs WT,[3],significantly higher maximum activity
Cc1ccc(N(CC2=NCCN2)c2cccc(O)c2)cc1 [phentolamine],Ki increase vs WT (decreased binding affinity),[4],~3 fold
COc1ccccc1N1CCN(CCCNc2c(C)c(=O)n(C)c(=O)n2C)CC1 [5-methylurapidil],higher affinity vs WT,[1],3 fold
CNC[C@H](O)c1cccc(O)c1 [phenylephrine],Ki increase vs WT (decrease in receptor affinity),[1],~3 fold
